≈ marks a conversion by molar mass, not a printed value.
Experiments:
[1] = tested on: Mycolicibacterium fortuitum; assay: In vitro anti-mycobacterial activity expressed as minimum inhibitory concentration against Mycobacterium fortuitum ATCC 6841; type: functional
[2] = tested on: Mycobacterium tuberculosis; assay: In vitro antituberculosis activity against Mycobacterium tuberculosis H37Rv using the BACTEC 12B medium using a micro dilution assay( MABA); type: functional
[3] = tested on: Mycobacterium tuberculosis; assay: Percent reduction of mycobacterial growth using Mycobacterium tuberculosis H37Rv at a concentration of 12.5 ug/mL; type: functional
[4] = tested on: Mycobacterium tuberculosis; assay: Compound was evaluated for antituberculosis activity against Mycobacterium tuberculosis in level 2 assay (performed using BACTEC in which MIC of RMP was found as 0.125 […]); type: functional
[5] = tested on: Mycobacterium tuberculosis; assay: Concentration required for inhibition of growth of Mycobacterium tuberculosis in level 2 assay; type: functional, organism-based
[6] = Selectivity index (IC50/MIC) was determined; type: functional
Mus musculus = species: Mus musculus; assay: Tested in vitro for killing of Mycobacterium tuberculosis Erdman (ATCC 35801) in monolayers of mouse bone marrow macrophages and 99% reduction was reported using level 3 assay; type: functional; parameters: unit not given here
[7] = Tested in vitro for killing of Mycobacterium tuberculosis Erdman (ATCC 35801) in monolayers of mouse bone marrow macrophages and 90% reduction was reported using level 3 assay; type: functional; parameters: unit not given here
[8] = tested on: Mycobacterium tuberculosis; assay: Compound was evaluated for antituberculosis activity against Mycobacterium tuberculosis in level 2 assay; type: functional
[9] = Ratio between EC90 and MIC was reported; type: functional

S=C(Nc1ccccc1)Nc1ccc(-c2n[nH]c(=S)n2-c2ccccc2)cc1
MIC [1]: > 128 µg/mL | MIC [2]: > 12.5 µg/mL | inhibition at 12.5 µg/mL [3]: 13%

CCn1c(S)nnc1-c1ccc(N/C(S)=N/C2CCCCC2)cc1
MIC [1]: 64 µg/mL (≈ 177 µM) | MIC [2]: > 12.5 µg/mL | inhibition at 12.5 µg/mL [3]: 10%

C=CCNC(=S)Nc1ccc(-c2nnc(SCc3ccc(Cl)cc3Cl)n2-c2ccccc2)cc1
MIC [1]: > 128 µg/mL | MIC [2]: > 12.5 µg/mL | inhibition at 12.5 µg/mL [3]: 63%

C=CCNC(=S)Nc1ccc(-c2nnc(SCc3ccc(Cl)cc3Cl)n2C)cc1
MIC [1]: > 128 µg/mL | MIC [2]: < 12.5 µg/mL | MIC [4]: 6.25 µg/mL | IC50 [5]: > 10 µg/mL | inhibition at 12.5 µg/mL [3]: 94% | Ratio [6]: > 1.6

C=CCNC(=S)Nc1ccc(-c2n[nH]c(=S)n2-c2ccccc2)cc1
MIC [1]: 64 µg/mL (≈ 174 µM) | MIC [2]: > 12.5 µg/mL | inhibition at 12.5 µg/mL [3]: 12%

C=CCNC(=S)Nc1ccc(-c2n[nH]c(=S)n2CC)cc1
MIC [1]: 64 µg/mL (≈ 200 µM) | MIC [2]: > 12.5 µg/mL | inhibition at 12.5 µg/mL [3]: 89%

CO[C@H]1/C=C/O[C@@]2(C)Oc3c(C)c(O)c4c(O)c(c(/C=N/N5CCN(C)CC5)c(O)c4c3C2=O)NC(=O)/C(C)=C\C=C\[C@H](C)[C@H](O)[C@@H](C)[C@@H](O)[C@@H](C)[C@H](OC(C)=O)[C@@H]1C [RIFAMPIN]
MIC [1]: 0.25 µg/mL (≈ 0.304 µM) | EC99 (Mus musculus): 0.451 | EC90 [7]: 0.007

C=CCNC(=S)Nc1ccc(-c2n[nH]c(=S)n2CC=C)cc1
MIC [1]: 32 µg/mL (≈ 96.5 µM) | MIC [2]: > 12.5 µg/mL | inhibition at 12.5 µg/mL [3]: 71%

NC[C@H]1O[C@H](O[C@H]2[C@H](O)[C@@H](O[C@H]3O[C@H](CO)[C@@H](O)[C@H](N)[C@H]3O)[C@H](N)C[C@@H]2N)[C@H](N)C[C@@H]1O [TOBRAMYCIN]
MIC [1]: 32 µg/mL (≈ 68.4 µM)

CCNC(=S)Nc1ccc(-c2n[nH]c(=S)n2-c2ccccc2)cc1
MIC [1]: 64 µg/mL (≈ 180 µM) | MIC [2]: > 12.5 µg/mL | inhibition at 12.5 µg/mL [3]: 17%

CNC(=S)Nc1ccc(-c2nnc(SCc3ccccc3)n2C)cc1
MIC [1]: > 128 µg/mL | MIC [2]: > 12.5 µg/mL | inhibition at 12.5 µg/mL [3]: 85%

Cn1c(S)nnc1-c1ccc(N/C(S)=N/C2CCCCC2)cc1
MIC [1]: 32 µg/mL (≈ 92.1 µM) | MIC [2]: > 12.5 µg/mL | inhibition at 12.5 µg/mL [3]: 10%

S=C(Nc1ccc(Cl)cc1)Nc1ccc(-c2n[nH]c(=S)n2-c2ccccc2)cc1
MIC [1]: 64 µg/mL (≈ 146 µM) | MIC [2]: > 12.5 µg/mL | inhibition at 12.5 µg/mL [3]: 11%

CNC(=S)Nc1ccc(-c2n[nH]c(=S)n2-c2ccccc2)cc1
MIC [1]: 64 µg/mL (≈ 187 µM) | MIC [2]: > 12.5 µg/mL | inhibition at 12.5 µg/mL [3]: 27%

C=CCn1c(-c2ccc(NC(=S)NC)cc2)n[nH]c1=S
MIC [1]: > 128 µg/mL | MIC [2]: > 12.5 µg/mL | inhibition at 12.5 µg/mL [3]: 0%

C=CCNC(=S)Nc1ccc(-c2n[nH]c(=S)n2C)cc1
MIC [1]: 64 µg/mL (≈ 210 µM) | MIC [2]: 12.5 µg/mL (≈ 40.9 µM) | EC99 (Mus musculus): >100 | EC90 [7]: 0.698 | inhibition at 12.5 µg/mL [3]: 94% | MIC [8]: > 12.5 µg/mL | Ratio [9]: < 0.0558

Cn1c(-c2ccc(NC(=S)Nc3ccccc3)cc2)n[nH]c1=S
MIC [1]: 64 µg/mL (≈ 187 µM) | MIC [2]: > 12.5 µg/mL | inhibition at 12.5 µg/mL [3]: 29%

CNC(=S)Nc1ccc(-c2n[nH]c(=S)n2C)cc1
MIC [1]: 64 µg/mL (≈ 229 µM) | MIC [2]: < 12.5 µg/mL | EC99 (Mus musculus): >100 | EC90 [7]: 0.371 | inhibition at 12.5 µg/mL [3]: 93% | MIC [8]: > 12.5 µg/mL | EC90/MIC [9]: < 0.0297

S/C(=N\C1CCCCC1)Nc1ccc(-c2nnc(S)n2C2CCCCC2)cc1
MIC [1]: > 128 µg/mL | MIC [2]: > 12.5 µg/mL | inhibition at 12.5 µg/mL [3]: 12%

C=CCn1c(-c2ccc(NC(=S)Nc3ccccc3)cc2)n[nH]c1=S
MIC [1]: 32 µg/mL (≈ 87.1 µM) | MIC [2]: > 12.5 µg/mL | inhibition at 12.5 µg/mL [3]: 0%

CCNC(=S)Nc1ccc(-c2n[nH]c(=S)n2C)cc1
MIC [1]: 64 µg/mL (≈ 218 µM) | MIC [2]: < 12.5 µg/mL | EC99 (Mus musculus): 48.65 | EC90 [7]: 0.303 | inhibition at 12.5 µg/mL [3]: 90% | MIC [8]: > 12.5 µg/mL | Ratio [9]: < 0.0242

C=CC/N=C(\S)Nc1ccc(-c2nnc(S)n2C2CCCCC2)cc1
MIC [1]: 32 µg/mL (≈ 85.7 µM) | MIC [2]: > 12.5 µg/mL | inhibition at 12.5 µg/mL [3]: 35%

S/C(=N\C1CCCCC1)Nc1ccc(-c2nnc(S)n2-c2ccccc2)cc1
MIC [1]: 64 µg/mL (≈ 156 µM) | MIC [2]: > 12.5 µg/mL | inhibition at 12.5 µg/mL [3]: 13%

C=CCNC(=S)Nc1ccc(-c2n[nH]c(=S)n2CCc2ccccc2)cc1
MIC [1]: 64 µg/mL (≈ 162 µM) | MIC [2]: > 12.5 µg/mL | inhibition at 12.5 µg/mL [3]: 6%
